# Measurements: publication PMC8600679, “Substituted Two- to Five-Ring Polycyclic Aromatic Compounds Are Potent Agonists of Atlantic Cod (Gadus morhua) Aryl Hydrocarbon Receptors Ahr1a and Ahr2a” (Environmental Science & Technology, 2021)
# Where two headings read alike, the source gives them in different places.
# Assays:
# Atlantic cod Ahr1a = Atlantic cod Ahr1a (Gadus morhua, UniProt A0A6H1Z2L5); experiment: cell-based; details: for Ahr1a REP25: EC25 of TCDD divided by concentration of PAC giving 25% of TCDD response; for Efficacy compared to TCDD with Ahr1a: Welch's t-test, Supporting Table S6; for Activation of Ahr1a (agonist or not): in vitro transactivation
# Atlantic cod Ahr2a = target: T1, Atlantic cod Ahr2a (Gadus morhua, UniProt A0A6H1Z3G8); experiment: cell-based; details: for Ahr2a REP25: EC25 of TCDD divided by concentration of PAC giving 25% of TCDD response; for Efficacy compared to TCDD via Ahr2a: Welch's t-test, Supporting Table S6; for Activation of Ahr2a (agonist or not): in vitro transactivation; for fold higher REP25 with Ahr2a compared to Ahr1a: Ahr2a versus Ahr1a
# T1 sequence (A0A6H1Z3G8 1-1127): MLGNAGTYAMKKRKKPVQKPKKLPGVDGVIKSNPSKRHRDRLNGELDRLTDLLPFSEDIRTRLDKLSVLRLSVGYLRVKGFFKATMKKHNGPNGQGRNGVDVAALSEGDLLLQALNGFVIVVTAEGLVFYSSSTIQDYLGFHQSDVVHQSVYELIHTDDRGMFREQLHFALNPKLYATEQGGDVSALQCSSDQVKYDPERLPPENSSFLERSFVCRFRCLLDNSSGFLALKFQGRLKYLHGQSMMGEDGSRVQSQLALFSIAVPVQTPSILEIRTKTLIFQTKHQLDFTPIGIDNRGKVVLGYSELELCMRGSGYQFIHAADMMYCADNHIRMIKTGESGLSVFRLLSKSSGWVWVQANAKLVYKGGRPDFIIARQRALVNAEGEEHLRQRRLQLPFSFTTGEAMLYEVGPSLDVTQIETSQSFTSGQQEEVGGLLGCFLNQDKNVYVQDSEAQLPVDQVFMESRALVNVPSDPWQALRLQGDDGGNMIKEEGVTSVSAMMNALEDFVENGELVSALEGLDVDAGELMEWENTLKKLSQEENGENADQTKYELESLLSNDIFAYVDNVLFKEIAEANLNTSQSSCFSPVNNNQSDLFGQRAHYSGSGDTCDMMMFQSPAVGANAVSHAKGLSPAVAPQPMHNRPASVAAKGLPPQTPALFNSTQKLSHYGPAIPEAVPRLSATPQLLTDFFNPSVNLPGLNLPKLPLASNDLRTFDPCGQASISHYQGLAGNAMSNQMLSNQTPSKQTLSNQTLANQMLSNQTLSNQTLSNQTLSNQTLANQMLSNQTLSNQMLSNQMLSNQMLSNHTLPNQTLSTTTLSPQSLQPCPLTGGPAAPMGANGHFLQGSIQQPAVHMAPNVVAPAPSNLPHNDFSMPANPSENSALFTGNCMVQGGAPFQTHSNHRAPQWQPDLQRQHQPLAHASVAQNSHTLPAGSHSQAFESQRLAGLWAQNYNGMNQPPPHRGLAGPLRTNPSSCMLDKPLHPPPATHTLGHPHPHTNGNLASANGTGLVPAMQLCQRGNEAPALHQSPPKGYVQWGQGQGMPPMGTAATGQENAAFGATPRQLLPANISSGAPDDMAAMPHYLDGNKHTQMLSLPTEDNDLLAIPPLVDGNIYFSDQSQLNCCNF
# COS-7 cells = experiment: Resazurin reduction viability assay; type: cell-based, simian; details: highest concentrations used; relative to 0.5% DMSO solvent control
# Description: COS-7 simian kidney cells were seeded onto 96 well plates (10 000 cells/well) in Dulbecco’s modified Eagle’s medium (DMEM) with phenol red, supplemented with 10% fetal bovine serum (FBS), 4 mM L-glutamate, 1 mM sodium pyruvate, and 100 U/mL penicillin–streptomycin (Merck KGaA, Darmstadt, Germany), and cultivated at 37 °C with 5% CO2 for 24 h. Cells were transiently co-transfected with a eukaryotic expression plasmid (pcDNA3.1/Zeo(+), 31 ng/well), pcDNA3.1/Zeo(+)-based plasmids encoding gmAhr1a or gmAhr2a (3 ng/well), gmArnt1 (6 ng/well),[37] a luciferase reporter plasmid containing four DREs (pGudLuc6.1, 30 ng/well), and a β-galactosidase normalization plasmid (pCMV-βGAL, 30 ng/well),[45],[46] using a Mirus TransIT LT-1 transfection reagent according to the recommendations of the supplier. COS-7 cells were seeded and cultivated in DMEM (4500 mg/L glucose), supplemented with 10% FBS, 1 mM sodium pyruvate, and 4 mM L-glutamine. In the exposure medium, FBS was substituted with 10% charcoal-stripped FBS (VWR International, Radnor). To create the exposure media with the highest test concentration, compounds solved in dimethyl sulfoxide (DMSO) were diluted 1:200 in exposure medium, resulting in exposure media with 1× test compound and 0.5% DMSO. The highest concentration exposure media were serially diluted five times (1:2 for the first dilution, then 1:5) in exposure medium supplemented with 0.5% DMSO. Following transfection, cells were incubated in exposure media containing PACs or solvent control (0.5% DMSO) for 24 h. Reporter gene assays were repeated at least three times and with three technical replicates per exposure. TCDD (30 pM to 100 nM) was used as a known agonist in each experiment. Absorbance and luminescence measurements were performed on an EnSpire Multimode plate reader (PerkinElmer, Waltham, MA). While no wavelength filtering was used to measure firefly luciferase activity by luminescence, absorbance measurements to quantify β-galactosidase activity were performed at 420 nm wavelength. The viability of exposed cells was evaluated using the resazurin reduction assay as previously described.[47],[48]
# Recorded luminescence was normalized for variation in transfection efficiencies using β-galactosidase enzyme activity. The difference in normalized light units measured in lysates from exposed cells to solvent-exposed cells was calculated and expressed relative to the maximum response in TCDD-exposed cells. Response curves were prepared by nonlinear regression analyses in Prism v7 and used for the determination of half-maximal effective concentration values (EC50) and maximum efficacies (Emax). EC50 values were only determined for compounds that produced a sigmoidal concentration–response curve. Relative effect potencies 25 (REP25) were determined by dividing the EC25 of TCDD by the concentration of PAC necessary to produce a response equal to 25% of the response of TCDD with gmAhrs, essentially as described by Villeneuve et al. and Lam et al.[49],[50] The D’Agostino–Pearson (Ahr activation data) or Kolmogorov–Smirnov (viability data) normality tests were used to confirm the normal distribution of the data. One-way analysis of variance (ANOVA) and Dunnett′s test were used to compare responses at different concentrations of compounds and solvent control mediated via the same Ahr, in addition to comparing metabolic activity in PAC-exposed cells and cells exposed to solvent control in the resazurin reduction assay. Welch′s t-test was used to compare the maximum Ahr-mediated response and potency (Emax and EC50) between Ahr1a or Ahr2a produced by the same test compound (Prism v7).
# [1] = percent of maximum efficacy determined for TCDD, COS-7 cells, 24 h exposure, None = no agonistic response significantly different from solvent
# [2] = COS-7 cells, 24 h exposure, read-out: Ahr1a EC50
# [3] = Supplementary Table S5, read-out: Potency (EC50, nM) Ahr1a
# [4] = percent of maximum efficacy determined for TCDD, COS-7 cells, 24 h exposure, None = no agonistic response significantly different from solvent, read-out: Ahr1a Relative Emax (%)
# [5] = COS-7 cells, 24 h exposure, read-out: Ahr2a EC50
# [6] = Supplementary Table S5, read-out: Potency (EC50, nM) Ahr2a
# [7] = percent of maximum efficacy determined for TCDD, COS-7 cells, 24 h exposure, None = no agonistic response significantly different from solvent, read-out: Ahr2a Relative Emax (%)
# [8] = COS-7, curve did not reach a plateau: relative response at the highest tested concentration, percent of TCDD maximum, read-out: Ahr1a Relative Emax (%), marked *
# [9] = COS-7, curve did not reach a plateau: relative response at the highest tested concentration, percent of TCDD maximum, read-out: Ahr2a Relative Emax (%), marked *
# Sequence of Atlantic cod Ahr1a (A0A6H1Z2L5 1-957): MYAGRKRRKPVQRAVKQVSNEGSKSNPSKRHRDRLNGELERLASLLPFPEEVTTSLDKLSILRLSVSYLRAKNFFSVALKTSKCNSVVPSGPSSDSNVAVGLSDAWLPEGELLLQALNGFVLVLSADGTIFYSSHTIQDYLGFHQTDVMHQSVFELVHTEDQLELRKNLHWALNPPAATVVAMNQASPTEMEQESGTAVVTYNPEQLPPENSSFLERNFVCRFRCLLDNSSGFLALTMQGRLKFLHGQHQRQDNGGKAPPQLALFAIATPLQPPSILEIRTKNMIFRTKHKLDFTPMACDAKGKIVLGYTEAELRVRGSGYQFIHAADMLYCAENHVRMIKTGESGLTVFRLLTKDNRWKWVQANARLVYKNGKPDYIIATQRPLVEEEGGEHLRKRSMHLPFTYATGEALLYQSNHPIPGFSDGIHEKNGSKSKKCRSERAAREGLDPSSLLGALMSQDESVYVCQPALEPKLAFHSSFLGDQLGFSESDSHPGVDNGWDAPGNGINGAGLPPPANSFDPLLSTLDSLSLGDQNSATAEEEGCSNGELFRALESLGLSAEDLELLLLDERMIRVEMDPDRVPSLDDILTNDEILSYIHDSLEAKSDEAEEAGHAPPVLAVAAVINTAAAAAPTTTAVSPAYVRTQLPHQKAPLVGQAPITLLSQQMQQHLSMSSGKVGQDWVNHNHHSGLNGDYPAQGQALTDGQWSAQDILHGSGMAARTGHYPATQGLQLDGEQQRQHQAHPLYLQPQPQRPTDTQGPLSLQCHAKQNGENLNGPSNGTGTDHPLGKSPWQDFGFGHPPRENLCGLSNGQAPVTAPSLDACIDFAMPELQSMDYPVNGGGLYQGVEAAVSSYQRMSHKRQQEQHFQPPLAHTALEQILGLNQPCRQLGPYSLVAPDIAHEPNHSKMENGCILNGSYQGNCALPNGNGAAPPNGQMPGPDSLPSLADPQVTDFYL
# Sequence of Atlantic cod Ahr1a (A0A8C5CZZ9 1-645 partner): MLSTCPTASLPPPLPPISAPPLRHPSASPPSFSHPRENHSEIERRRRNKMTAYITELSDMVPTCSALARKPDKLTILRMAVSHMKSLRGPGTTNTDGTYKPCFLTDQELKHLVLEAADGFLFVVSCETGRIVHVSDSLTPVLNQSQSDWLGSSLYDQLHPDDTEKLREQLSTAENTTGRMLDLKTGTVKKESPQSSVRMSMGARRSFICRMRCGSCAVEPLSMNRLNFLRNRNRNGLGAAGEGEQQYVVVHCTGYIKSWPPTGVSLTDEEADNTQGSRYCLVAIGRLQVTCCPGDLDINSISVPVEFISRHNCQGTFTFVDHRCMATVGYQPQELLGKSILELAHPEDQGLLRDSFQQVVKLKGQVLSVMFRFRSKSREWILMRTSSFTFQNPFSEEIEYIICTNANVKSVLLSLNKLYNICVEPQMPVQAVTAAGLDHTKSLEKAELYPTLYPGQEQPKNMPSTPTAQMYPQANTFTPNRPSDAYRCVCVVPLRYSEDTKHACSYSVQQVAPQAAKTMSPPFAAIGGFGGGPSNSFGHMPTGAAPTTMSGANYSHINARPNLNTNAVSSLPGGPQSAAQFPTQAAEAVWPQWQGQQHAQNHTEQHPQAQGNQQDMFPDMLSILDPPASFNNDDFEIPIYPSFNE
SMILES,Ahr1a REP25 (Atlantic cod Ahr1a),Efficacy compared to TCDD with Ahr1a (Atlantic cod Ahr1a),Ahr2a REP25 (Atlantic cod Ahr2a),Efficacy compared to TCDD via Ahr2a (Atlantic cod Ahr2a),Metabolic activity (cell viability) of exposed COS-7 cells (COS-7 cells),Activation of Ahr1a (agonist or not) (Atlantic cod Ahr1a),Activation of Ahr2a (agonist or not) (Atlantic cod Ahr2a),EC50 (Atlantic cod Ahr1a; [2]) [nM],Emax (Atlantic cod Ahr1a; [4]) [%],EC50 (Atlantic cod Ahr2a; [5]) [nM],Emax (Atlantic cod Ahr2a; [7]) [%],fold higher REP25 with Ahr2a compared to Ahr1a (Atlantic cod Ahr2a),other results
"Oc1cccc2c1ccc1c3ccccc3ccc21 [1-COH, Chrysene-1-ol]",0.0045,higher efficacies (superefficacies) than TCDD,0.0077,lower efficacies in comparison to TCDD,slight reduction in metabolic activities,–,–,–,–,–,–,–,"EC50 (Atlantic cod Ahr1a; Ahr1a EC50 (nM), COS-7 cells, 24 h exposure): 485 nM; Emax (Atlantic cod Ahr1a; COS-7, read-out: Ahr1a Relative Emax (%)): 116%; Emax (Atlantic cod Ahr1a; COS-7, read-out: Efficacy (Emax, %) Ahr1a): 116%; EC50 (Atlantic cod Ahr1a; Potency (EC50, nM) Ahr1a, Supplementary Table S5): 485 nM; EC50 (Atlantic cod Ahr2a; Ahr2a EC50 (nM), COS-7 cells, 24 h exposure): 633 nM; Emax (Atlantic cod Ahr2a; COS-7, read-out: Ahr2a Relative Emax (%)): 72.8%; EC50 (Atlantic cod Ahr2a; Potency (EC50, nM) Ahr2a, Supplementary Table S5): 633 nM"
"Cc1cc2ccc3ccccc3c2cc1C [2,3-DMP, 2,3-Dimethylphenanthrene]",–,–,–,–,slight reduction in metabolic activities,did not activate,did not activate,–,–,–,–,–,Ahr1a Relative Emax (%) (Atlantic cod Ahr1a; [1]): None; Ahr2a Relative Emax (%) (Atlantic cod Ahr2a; [1]): None
"Oc1ccc2ccc3c4ccccc4ccc3c2c1 [3-COH, Chrysene-3-ol]",0.00257,lower efficacies than TCDD,0.0099,lower efficacies in comparison to TCDD,slight reduction in metabolic activities,–,–,345,86.5,275,66.1,–,EC50 (Atlantic cod Ahr1a; [3]): 345 nM; EC50 (Atlantic cod Ahr2a; [6]): 274 nM
"COc1ccc2ccc3c4ccccc4ccc3c2c1 [3-MOC, 3-Methoxychrysene]",0.0056,lower efficacies than TCDD,0.0588,lower efficacies in comparison to TCDD,slight reduction in metabolic activities,–,–,195,66.6,98.6,80.8,5- to 10 fold,–
"COc1cccc2ccc3c4ccccc4ccc3c12 [4-MOC, 4-Methoxychrysene]",0.033,lower efficacies than TCDD,0.206,–,slight reduction in metabolic activities,–,–,43.8,83.8,30.9,93.7,5- to 10 fold,–
"Cc1cc2c3ccccc3ccc2c2ccccc12 [6-MC, 6-Methylchrysene]",0.00064,efficacies similar to that of TCDD,0.0031,–,slight reduction in metabolic activities,–,–,–,90.6,2260,89.8,5- to 10 fold,EC50 (Atlantic cod Ahr1a; [3]): 3540 nM; EC50 (Atlantic cod Ahr2a; [6]): 88.8 nM
"c1cc2ccc3cccc4ccc(c1)c2c34 [PYR, Pyrene]",–,–,–,–,–,did not activate,did not activate,–,–,–,–,–,Ahr1a Relative Emax (%) (Atlantic cod Ahr1a; [1]): None; Ahr2a Relative Emax (%) (Atlantic cod Ahr2a; [1]): None
"O[C@@H]1C=Cc2ccccc2[C@H]1O [R,R-1,2-DHN, (1R,2R)-1.2-Dihydronaphthalene-1,2-diol]",0.00028,–,0.00124,–,–,activated both Ahr1a and Ahr2a,activated both Ahr1a and Ahr2a,–,–,–,–,5- to 10 fold,Emax (Atlantic cod Ahr1a; [8]): 145%; Emax (Atlantic cod Ahr2a; [9]): 140%
"O[C@@H]1C=Cc2c(ccc3ccccc23)[C@H]1O [R,R-1,2-DHP, (1R,2R)-1.2-Dihydrophenanthrene-1,2-diol]",0.00002,–,0.000044,–,–,activated both Ahr1a and Ahr2a,activated both Ahr1a and Ahr2a,–,–,–,–,–,Emax (Atlantic cod Ahr1a; [8]): 36.1%; Emax (Atlantic cod Ahr2a; [9]): 25.9%
